Data taken from US7772228B2, “Method for treatment of bacterial infections with once or twice-weekly administered rifalazil” (priority 1998, dated 2010).
Converted amounts (≈) assume the structure as drawn. Read-outs that look alike come from different tables or passages of the source.

Assays:
[1] = system: M. tuberculosis; details: cited from earlier work
[2] = system: extracellular M. tuberculosis; details: cited from earlier work
[3] = system: Helicobacter pylori; design: unit of the concentration uncertain; details: time-kill, broth medium, 0.04 (unit uncertain); cited from earlier work
[4] = system: M. avium; details: 18 strains, agar dilution; cited from earlier work
[5] = system: M. tuberculosis; type: cell-based, Mycobacterium tuberculosis; details: comparison of MIC50 and MIC90, clinical isolates
[6] = clinical; details: human, in vivo
Experimental: A total of four clinical trials have been conducted to study the effects of rifalazil in humans. Two single-dose Phase 1 clinical trials (001) and (002) assessed the safety and pharmacokinetics of rifalazil in normal, healthy, fasted subjects. In the 001 trial, a single 300 mg dose of rifalazil was administered to six subjects. In the 002 trial, single doses of 30 mg or 100 mg were administered to eight subjects each. The results of these studies indicated a substantially higher incidence of adverse reactions at the 300 mg dose compared to the 30 mg or 100 mg dose.
The pharmacokinetics of rifalazil in whole blood in these two clinical trials was similar to that of rifalazil pharmacokinetics in plasma. […] Therefore, future pharmacokinetic analyses focused on rifalazil concentrations in plasma. Table 7 summarizes noncompartmental parameters derived from plasma concentrations in fasted subjects following administration of single doses of 30 mg, 100 mg, or 300 mg of rifalazil in these studies.
Pharmacokinetic analyses associated with clinical trials involved measurement of concentrations of rifalazil in plasma and/or whole blood of subjects participating in the four Phase 1 studies using high performance liquid chromatography.

[7] = clinical; details: human, in vivo; remark: listed apart in the source
Source text: Attempts were made to analyze the multiple-dose pharmacokinetics using a linear 3-compartment model, and a 3-compartment model incorporating enzyme induction. However, neither multi-compartmental model accurately characterized the pharmacokinetic parameters in all subjects. Daily dosing and related early terminations due to adverse reactions, differences in bioavailability from a food effect, and nonconnective dose administration further complicated these analyses. Therefore, only noncompartmental pharmacokinetic parameters were derived for clinical trials 003 and 004. For the 004 clinical trial, the pharmacokinetic analysis of this multiple-dose study was limited to a comparison of the noncompartmental parameters obtained from the first dose (Day 1) data versus the fourth (last) dose (Day 22). Because of extensive sampling after the fourth dose, this study yielded the most complete data about terminal elimination of rifalazil given in a multiple-dose regimen.

[8] = system: extracellular M. tuberculosis; experiment: MIC and MBC against extracellular bacteria; type: cell-based, Mycobacterium tuberculosis
[9] = system: M. intracellulare; experiment: Mice infected with M. intracellulare, CFUs in organs; type: in vivo; details: after four and eight weeks of treatment
[10] = system: M. tuberculosis; details: cited from earlier work; remark: listed apart in the source
[11] = Clinical signs, general behavior and spontaneous locomotor activity of mice; type: in vivo
Experimental: Pharmacological studies were undertaken in mice, rats, and dogs, and in isolated guinea pig ileum.
Rifalazil had little effect on the clinical signs or general behavior of mice following oral administration of 100, 300, or 1,000 mg/kg. Rifalazil had no effect on the spontaneous locomotor activity of mice at 100 and 300 mg/kg.

[12] = human, in vivo
Experimental: The fourth trial (004) was a also a randomized, rising, double-blind, multiple-dose, placebo-controlled study. In this trial, weekly doses of placebo or rifalazil (25 mg or 50 mg) were administered to the subjects for a total of 4 weeks. All subjects received the dose within 30 minutes after eating a standardized breakfast and were monitored for an additional 14 days after the last dose. Four subjects were randomized to placebo, six subjects to 25 mg rifalazil, and eight subjects to 50 mg rifalazil.
Laboratory testing regimen for 003 and 004 trials was the same as for 001 and 002 trials.
Results obtained in 004 clinical trial where the healthy volunteers received only one dose a week for four weeks are seen in FIGS. 8-10.

[13] = Ref. 7, 7H11 agar, 22 strains (rif^r and rif^s)

Structure (SMILES): CO[C@H]1/C=C/O[C@@]2(C)Oc3c(C)c(O)c4c(=O)c(c5oc6cc(N7CCN(CC(C)C)CC7)cc(O)c6nc-5c4c3C2=O)NC(=O)/C(C)=C\C=C\[C@H](C)[C@H](O)[C@@H](C)[C@@H](O)[C@@H](C)[C@H](OC(C)=O)[C@@H]1C [Rifalazil, 3′-hydroxy-5′-(4-isobutyl-1-piperazinyl)benzoxasinorifamycin]
- MIC90 ([1]; 22 strains, agar dilution): 12500 ng/mL (≈ 13300 nM)
- MIC90 [1, 13]: 12500 ng/mL (≈ 13300 nM)
- MIC Range [1, 13]: ≦0.0125 to 12.5^ μg/mL
- MIC90 ([1]; Ref. 8, 7H11 agar, 16 strains (rif^s)): ≦0.0125 μg/mL
- MBC ([2]; strain Atencio): 8 ng/mL (≈ 8.5 nM)
- MIC ([2]; strain Atencio): 1 ng/mL (≈ 1.06 nM)
- MBC ([2]; strain Erdman): 4 ng/mL (≈ 4.25 nM)
- MIC ([2]; strain Erdman): 2 ng/mL (≈ 2.13 nM)
- MBC ([2]; strain H37Rv): 31 ng/mL (≈ 32.9 nM)
- MIC ([2]; strain H37Rv): 8 ng/mL (≈ 8.5 nM)
- CFUs at 24 hours lower than the control at zero hours [3]: more than 4.5 log
- MIC90 [4]: 1560 ng/mL (≈ 1660 nM)
- fold greater activity than rifabutin [5]: 4 fold
- fold greater activity than rifampin [5]: > 64 fold
- plasma to blood ratio [6]: 1.6:1
- AUC(0-inf) ([6]; 30 mg): 505 ng·h/mL
- AUC(0-t) ([6]; 30 mg): 197 ng·h/mL
- Cmax ([6]; 30 mg): 17.8 ng/mL
- Tmax ([6]; 30 mg): 3.1 h
- half-life ([6]; 30 mg): 48.7 h
- AUC(0-inf) ([6]; 100 mg): 1540 ng·h/mL
- AUC(0-t) ([6]; 100 mg): 800 ng·h/mL
- Cmax ([6]; 100 mg): 53.6 ng/mL
- Tmax ([6]; 100 mg): 4 h
- half-life ([6]; 100 mg): 43.1 h
- AUC(0-inf) ([6]; 300 mg): 4330 ng·h/mL
- AUC(0-t) ([6]; 300 mg): 1450 ng·h/mL
- Cmax ([6]; 300 mg): 116 ng/mL
- Tmax ([6]; 300 mg): 3 h
- half-life ([6]; 300 mg): 206 h
- increase of AUC(0-24) on Day 22 relative to Day 1 ([7]; 25 mg): approximately 17%
- half-life ([7]; 25 mg, apparent terminal half-life, range): 29.5 to 107 h
- increase of AUC(0-24) on Day 22 relative to Day 1 ([7]; 50 mg): ~27%
- half-life ([7]; 50 mg, apparent terminal half-life, range): 65.9 to 148 h
- half-life ([7]; Half-life distribution t½ (mean)): 10.5 h
- half-life ([7]; Half-life elimination t½ (mean)): ~61 h
- Tmax ([7]; Tmax (mean)): 5.7 h
- MIC and MBC fold lower than rifampin ([8]; extracellular bacteria): at least 10 fold
- MBCs relative to the MICs ([8]; typical): 2-4 fold
- number of CFUs in organs [9]: significantly reduced the number of colony forming units (CFUs) in organs
- lesions in the lung ([10]; 10 mg/kg six times a week): no lesions observed in the lung
- reduction of log CFU in lungs ([10]; 10 mg/kg six times a week): about 80%
- reduction of the bacteria ([10]; Twice-a-week or once-a-week administration): about 35%
- reduction in CFU ([10]; once-a-week administration of these very high dosages): about 42%
- spontaneous locomotor activity ([11]; 1000 mg/kg): increase in spontaneous locomotor activity for one hour
- spontaneous locomotor activity ([11]; 100 and 300 mg/kg): no effect
- clinical signs or general behavior ([11]; oral 100, 300, or 1,000 mg/kg): little effect
- time for hematologic parameters to return to normal after the last dose [12]: ≤ 14 days
